From ChEMBL document CHEMBL4011630 (J Med Chem, 2017)
Where a SMILES comes first, the peptide text is derived from it. Bridges are numbered along the chain shown (N, C = ends). [ ]: non-standard residue; d: D form. hMet = CSCCC[C@H](N)C(=O)O

How the values were obtained:
[1] = molecular target: T1, Neuronal acetylcholine receptor; alpha3/beta4 (Rattus norvegicus, UniProt P04757+P12392); assay: Antagonist activity at rat alpha3beta4 nACHR expressed in xenopous laevis oocyte assessed as inhibition of ACh induced channel current after 5 mins at -70 mV holding potential by two electrode voltage clamp method
T1 sequence (P04757 whole entry): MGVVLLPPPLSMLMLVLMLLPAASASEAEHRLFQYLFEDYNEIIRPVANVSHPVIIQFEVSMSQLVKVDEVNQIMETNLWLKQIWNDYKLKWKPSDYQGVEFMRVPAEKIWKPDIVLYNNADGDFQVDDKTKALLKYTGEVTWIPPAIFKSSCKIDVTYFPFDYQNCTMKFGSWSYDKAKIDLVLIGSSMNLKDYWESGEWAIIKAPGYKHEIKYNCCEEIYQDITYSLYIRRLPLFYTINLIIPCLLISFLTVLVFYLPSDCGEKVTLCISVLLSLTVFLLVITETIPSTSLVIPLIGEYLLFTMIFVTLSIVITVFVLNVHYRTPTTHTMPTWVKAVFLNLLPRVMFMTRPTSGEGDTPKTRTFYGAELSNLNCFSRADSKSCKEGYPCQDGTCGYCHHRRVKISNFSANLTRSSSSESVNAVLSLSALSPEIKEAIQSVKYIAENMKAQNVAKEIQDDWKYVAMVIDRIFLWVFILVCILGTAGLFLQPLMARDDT
T1 sequence (P12392 whole entry): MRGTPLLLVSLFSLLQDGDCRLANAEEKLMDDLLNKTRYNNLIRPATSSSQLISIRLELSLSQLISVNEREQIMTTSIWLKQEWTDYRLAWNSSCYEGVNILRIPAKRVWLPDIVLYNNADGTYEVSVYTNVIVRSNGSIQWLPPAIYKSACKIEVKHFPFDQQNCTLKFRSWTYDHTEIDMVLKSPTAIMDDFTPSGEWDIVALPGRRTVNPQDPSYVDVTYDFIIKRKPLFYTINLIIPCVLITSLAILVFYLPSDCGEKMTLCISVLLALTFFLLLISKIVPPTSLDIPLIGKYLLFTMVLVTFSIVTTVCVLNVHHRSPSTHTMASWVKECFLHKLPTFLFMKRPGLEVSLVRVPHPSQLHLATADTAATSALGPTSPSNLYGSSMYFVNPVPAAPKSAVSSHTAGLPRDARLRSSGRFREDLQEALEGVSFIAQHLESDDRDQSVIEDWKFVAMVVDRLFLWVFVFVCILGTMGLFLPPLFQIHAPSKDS

[2] = molecular target: T2, Nicotinic acetylcholine receptor alpha6/alpha3/beta4 (Rattus norvegicus, UniProt P04757+P12392+P43143); assay: Antagonist activity at rat alpha6/alpha3beta4 nACHR expressed in xenopous laevis oocyte assessed as inhibition of ACh induced channel current after 5 mins at -70 mV holding potential by two electrode voltage clamp method
T2 sequence (P04757 whole entry): as the sequence (P04757 whole entry) above
T2 sequence (P12392 whole entry): as the sequence (P12392 whole entry) above
T2 sequence (P43143 whole entry): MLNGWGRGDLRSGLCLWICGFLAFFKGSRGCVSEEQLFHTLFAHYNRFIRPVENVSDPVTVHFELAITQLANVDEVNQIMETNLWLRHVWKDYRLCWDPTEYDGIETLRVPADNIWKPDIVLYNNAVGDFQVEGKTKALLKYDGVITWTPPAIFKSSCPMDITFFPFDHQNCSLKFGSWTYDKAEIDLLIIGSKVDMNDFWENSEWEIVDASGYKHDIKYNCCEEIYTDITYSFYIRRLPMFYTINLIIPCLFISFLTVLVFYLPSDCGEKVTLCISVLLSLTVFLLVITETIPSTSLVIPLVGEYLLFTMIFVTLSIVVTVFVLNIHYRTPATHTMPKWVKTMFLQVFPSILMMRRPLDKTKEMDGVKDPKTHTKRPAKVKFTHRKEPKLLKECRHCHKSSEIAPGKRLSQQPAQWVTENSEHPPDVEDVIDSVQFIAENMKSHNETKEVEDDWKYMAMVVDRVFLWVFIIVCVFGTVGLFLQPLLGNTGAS

[3] = molecular target: T1, Neuronal acetylcholine receptor; alpha3/beta4; assay: Antagonist activity at rat alpha3beta4 nACHR expressed in xenopous laevis oocyte assessed as inhibition of ACh induced channel current after 6 to 10 mins at -70 mV holding potential by two electrode voltage clamp method
[4] = molecular target: T2, Nicotinic acetylcholine receptor alpha6/alpha3/beta4; assay: Antagonist activity at rat alpha6/alpha3beta4 nACHR expressed in xenopous laevis oocyte assessed as inhibition of ACh induced channel current after 6 to 10 mins at -70 mV holding potential by two electrode voltage clamp method
Rattus norvegicus = organism: Rattus norvegicus; assay: Selectivity ratio of IC50 for rat alpha6/alpha3beta4 nACHR expressed in xenopous laevis oocyte after 6 to 10 mins to IC50 for rat alpha3beta4 nACHR expressed in xenopous laevis oocyte after 6 to 10 mins

SMILES | IC50 [1] [µM] | IC50 [2] [µM] | IC50 [3] [µM] | IC50 [4] [µM] | Ratio IC50 (Rattus norvegicus)
CC[C@H](C)[C@@H]1NC(=O)[C@@H]2CCCN2C(=O)[C@H](CO)NC(=O)[C@H](CCCSC)NC(=O)[C@H](C)NC(=O)[C@H](CO)NC(=O)[C@@H]2CSSC[C@H](NC(=O)CN)C(=O)N[C@@H](CSSC[C@@H](C(N)=O)NC1=O)C(=O)N[C@@H](CO)C(=O)N[C@@H](Cc1cnc[nH]1)C(=O)N1CCC[C@H]1C(=O)N[C@@H](C)C(=O)N2 (H-GCCSHPACSA[hMet]SPIC-NH2; disulfide 2-8, 3-15) | > 10 | > 10 | – | – | –
CC[C@H](C)[C@@H]1NC(=O)[C@H](C)NC(=O)[C@H](C)NC(=O)[C@@H]2CSSC[C@H](NC(=O)CN)C(=O)N[C@@H](CSSC[C@@H](C(N)=O)NC(=O)[C@H]([C@@H](C)CC)NC(=O)[C@@H]3CCCN3C(=O)[C@H](CO)NC1=O)C(=O)N[C@@H](CO)C(=O)N[C@@H](Cc1cnc[nH]1)C(=O)N1CCC[C@H]1C(=O)N[C@@H](C(C)C)C(=O)N2 (H-GCCSHPVCAAISPIC-NH2; disulfide 2-8, 3-15) | 0.0307 | 0.101 | – | – | –
CC[C@H](C)[C@@H]1NC(=O)[C@@H]2CCCN2C(=O)[C@H](C)NC(=O)[C@H](CCCSC)NC(=O)[C@H](C)NC(=O)[C@H](CO)NC(=O)[C@@H]2CSSC[C@H](NC(=O)CN)C(=O)N[C@@H](CSSC[C@@H](C(N)=O)NC1=O)C(=O)N[C@@H](CO)C(=O)N[C@@H](Cc1cnc[nH]1)C(=O)N1CCC[C@H]1C(=O)N[C@@H](C(C)C)C(=O)N2 (H-GCCSHPVCSA[hMet]APIC-NH2; disulfide 2-8, 3-15) | 0.0174 | 0.0393 | – | – | –
CC[C@H](C)[C@@H]1NC(=O)[C@H](CCC(N)=O)NC(=O)[C@@H]2CCCN2C(=O)[C@H](CC(N)=O)NC(=O)[C@H](Cc2cnc[nH]2)NC(=O)[C@H](C(C)C)NC(=O)[C@H]([C@@H](C)O)NC(=O)[C@@H]2CSSC[C@H](NC(=O)[C@@H]3CCCN3C(=O)[C@H](CC(=O)O)NC(=O)[C@@H](N)CCCN=C(N)N)C(=O)N[C@@H](CSSC[C@@H](C(N)=O)NC1=O)C(=O)N[C@@H](CO)C(=O)N[C@@H](CC(N)=O)C(=O)N1CCC[C@H]1C(=O)N[C@@H](C(C)C)C(=O)N2 (H-RDPCCSNPVCTVHNPQIC-NH2; disulfide 4-10, 5-18) | – | – | 0.518 | 0.03 | –
CC[C@H](C)[C@@H]1NC(=O)[C@H](CCC(N)=O)NC(=O)[C@@H]2CCCN2C(=O)[C@H](CC(N)=O)NC(=O)[C@H](Cc2cnc[nH]2)NC(=O)[C@H](C(C)C)NC(=O)[C@H]([C@@H](C)O)NC(=O)[C@@H]2CSSC[C@H](NC(=O)[C@@H]3CCCN3C(=O)[C@H](CC(=O)O)NC(=O)[C@@H](N)CCCNC(=N)N)C(=O)N[C@@H](CSSC[C@@H](C(N)=O)NC1=O)C(=O)N[C@@H](CO)C(=O)N[C@@H](CC(N)=O)C(=O)N1CCC[C@H]1C(=O)N[C@@H](C(C)C)C(=O)N2 (H-RDPCCSNPVCTVHNPQIC-NH2; disulfide 4-10, 5-18) | – | – | – | – | 0.058
